Measurements: patent publication US12059464B2, “Combination therapy involving antibodies against Claudin 18.2 for treatment of cancer” (Astellas Pharma Inc., priority 2012, dated 2024)

Key:
[1] = tested on: NUGC-4 gastric cancer cells; assay: IMAB362-mediated ADCC on chemotherapy-pretreated NUGC-4 cells; assay type: cell-based, human; conditions: NUGC-4 pretreated with 5-FU+OX, EOF or FLO for 96 hours
Method: IMAB362-mediated ADCC was investigated using NUGC-4 gastric cancer cells as target, which were either pretreated with 10 ng/ml 5-FU and 500 ng/ml oxaliplatin (5-FU+OX), 10 ng/ml epirubicin, 500 ng/ml oxaliplatin and 10 ng/ml 5-FU (EOF) or 10 ng/ml 5-FU, 50 ng/ml folinic acid and 500 ng/ml oxaliplatin (FLO) for 96 hours (effector:target ratio 40:1) or untreated. EC50 values were obtained from 7 healthy donors for untreated and EOF, FLO or 5-FU+OX pretreated NUGC-4 cells.

[2] = tested on: NUGC-4 cells expressing CLDN18.2; assay: IMAB362 ADCC on NUGC-4 cells with PBMCs cultivated with IL-2 with or w/o ZA (luciferase assay); assay type: cell-based, human; conditions: PBMCs cultivated for 14 days with ZA/IL-2; IMAB362 0.26 ng/ml-200 μg/ml
Method: Specific killing was determined in luciferase assays; cf. FIG. 14a. […] NUGC-4 served as target cells.

[3] = tested on: CLDN18.2-positive (NUGC-4, KATO III) and negative (SK-BR-3) human target cell lines; assay: IMAB362 ADCC with ZA/IL-2 expanded effector cells on CLDN18.2-positive and negative target cell lines; assay type: cell-based
Method: These effector cell cultures were used in ADCC assays with CLDN18.2-positive (NUGC-4, KATO III) and negative (SK-BR-3) human target cell lines (E:T ratio 40:1). […] ADCC was measured in luciferase assays; cf. FIG. 15a. […] FIG. 15b. Same experiment as described in (a) was performed using NUGC-4 as target cells; cf. FIG. 15c. […] A purity of more than 97.0% Vγ9Vδ2 T cells in lymphocytes was obtained.

NUGC-4 xenografts = assay: In vivo tumor targeting of Dyelight 680-labeled antibodies (fluorescence imaging); design: species or system nude mice
[4] = tested on: HEK293~CLDN18.2 transfectants; assay: Early treatment of HEK293~CLDN18.2 tumor xenografts; assay type: in vivo, nude mice; conditions: 200 μg twice per week for 6 weeks i.v./i.p., start 3 days after inoculation
Source text: (§1) Moreover, advanced tumor treatment experiments were initiated up to 9 days after tumor cell inoculation when tumors had reached volumes of about 60-120 mm^3.
Nude mice were subcutaneously inoculated with 1×10^7 HEK293˜CLDN18.2 transfectants. Treatment of 10 mice per group started 3 days after tumor inoculation. […] Not only time to death was prolonged, but 4 of 10 mice survived the entire observation period of 210 days.

[5] = tested on: HEK293~CLDN18.2 tumor xenografts; assay: Treatment of advanced HEK293~CLDN18.2 tumor xenografts; assay type: in vivo, nude mice
Source text: as §1
(§2) Treatment of 9 to 10 mice per group was initiated when mean tumor volumes reached 88 mm^3 (62-126 mm^3). […] All mice in the groups treated with either PBS or isotype control died within 50-100 days. […] Three of these mice survived the entire observation period (FIG. 20). Importantly, antitumoral efficacy in vivo depends on the presence of the target on the tumor cells.

[6] = tested on: CLDN18.2-negative HEK293 tumor cells; assay: IMAB362 treatment of mice engrafted with CLDN18.2-negative tumor cells; assay type: in vivo; conditions: CLDN18.2-negative tumors
Source text: as §2

[7] = tested on: NUGC-4~CLDN18.2 xenografts; assay: IMAB362 immunotherapy of NUGC-4~CLDN18.2 xenografts; design: species or system mice; conditions: mouse, in vivo
[8] = tested on: NUGC-4~CLDN18.2 xenograft tumors; assay: Combination therapy with IMAB362 and EOF regimen on NUGC-4~CLDN18.2 xenografts; assay type: in vivo, nude mice; conditions: chemotherapy day 3, 10, 17, 24; IMAB362 weekly
Method: Mice were treated on day 3, 10, 17 and 24 with chemotherapeutic agents. IMAB362 treatment was continued weekly.

[9] = tested on: CLDN18.2-transfected HEK293 cells; assay: IMAB362 with ZA/IL-2 induced Vγ9Vδ2 T cells on HEK293~CLDN18.2 tumors in NSG mice; assay type: in vivo; conditions: 200 μg IMAB362 semi-weekly in the presence of human γδ T cells and ZA (plus IL-2)
Method: NSG mice lack mature T cells, B cells, natural killer (NK) cells, multiple cytokine signaling pathways, and they have many defects in innate immunity, whereas the niches in the primary and secondary immunological tissues are permissive to colonization by human immune cells.
NSG mice were inoculated subcutaneously with 1×10^7 CLDN18.2-transfected HEK293 cells. On the same day, mice received 8×10^6 human PBMCs enriched for Vγ9Vδ2 T cells, which were cultured for 14 days in ZA-supplemented medium. […] To maintain human T cells functional, IL-2 was administered semi-weekly and ZA weekly. […] In addition to 9 mice treated as described, two control groups of mice were established.

[10] = tested on: CLS-103~cldn18.2 allograft tumors; assay: Combination therapy with IMAB362 and EOF on CLS-103~cldn18.2 allograft tumors; assay type: in vivo, NMRI mice; conditions: EOF i.p. day 3, 10, 17, 24; IMAB362 800 μg i.v.; IL-2 3000 IE s.c. semi-weekly
Source text: CLS-103˜cldn18.2 allograft tumors were inoculated by injection of 1×10^6 CLS-103˜cldn18.2 cells subcutaneous into the flank of 10 NMRI mice for each treatment group. […] After end of chemotherapy, IMAB362 and IL-2 treatment was continued for the whole observation period. Tumor size and animal health were monitored semi-weekly.

[11] = target: first extracellular domain (ECD1) of CLDN18.2 (Homo sapiens, UniProt P56856); assay: Binding of IMAB362 to CLDN18.2
[12] = tested on: CLDN18.2-positive cancer cell lines; assay: IMAB362 treatment of mice bearing CLDN18.2-positive cancer cell lines; conditions: mouse, in vivo
[13] = Repeated dose toxicity study in mice; assay type: in vivo; conditions: weekly administration for 3 months, highest dose levels 400 mg/kg
Source text: (§3) This compartimentalization is lost upon malignant transformation rendering the epitope drugable by IMAB362.

[14] = Repeated dose toxicity studies in cynomolgus monkeys; assay type: in vivo; conditions: up to 5 weekly applications of up to 100 mg/kg
Source text: as §3

[15] = Toxicity and PK/TK profile studies (all toxicity studies); assay type: in vivo, mice and cynomolgus monkeys
Source text: as §3

[16] = Phase I clinical study, single intravenous administration; assay type: in vivo, human
Source text: IMAB362 is in early clinical testing. A phase I clinical study has been conducted in human. […] In an ongoing phase IIa clinical study IMAB362 is given repetitively.

[17] = tested on: NUGC-4 gastric cancer cells; assay: NUGC-4 gastric tumor xenograft model
Source text: Tumor sizes were monitored twice weekly.
Mice were stratified size-dependently into treatment groups (FIG. 21).

[18] = tested on: NCI-N87~CLDN18.2 xenograft tumors; assay: IMAB362 immunotherapy of NCI-N87~CLDN18.2 gastric carcinoma xenografts
Source text: NCI-N87˜CLDN18.2 xenograft tumors were inoculated subcutaneously by injection of 1×10^7 NCI-N87˜CLDN18.2 cells into the flank of 8 nude mice (female, 6 weeks old) per treatment group. […] Intravenous administration was continued weekly for the whole observation time. Tumor size and animal health was monitored semi-weekly. […] Mice were sacrificed, when tumor reached a volume of 1400 mm^3

[19] = tested on: NCI-N87~CLDN18.2 xenograft tumors; assay: Combination therapy with IMAB362 and EOF regimen on NCI-N87~CLDN18.2 xenografts
Method: NCI-N87˜CLDN18.2 xenograft tumors were inoculated by injection of 1×10^7 NCI-N87˜CLDN18.2 cells subcutaneous into the flank of 9 mice for each treatment group. […] Tumor size and animal health was monitored semi-weekly. […] The size of s.c. tumors was measured twice weekly (mean+SEM; *p<0.05). […] Mice were sacrificed, when tumor reached a volume of 1400 mm^3.

IMAB362: chimeric IgG1 antibody directed against CLDN18.2, developed by Ganymed Pharmaceuticals AG
maximal lysis in IMAB362-mediated ADCC versus untreated target cells [1]: higher maximal lysis | ADCC activity against CLDN18.2-positive NUGC-4 cells [2]: Strong IMAB362-dependent ADCC activity | ADCC activity with purified (>97%) Vγ9Vδ2 T cells ([3]; NUGC-4 targets, cells sorted from ZA/IL-2-cultured PBMC on day 14): retained and partly improved | ADCC activity on CLDN18.2-positive versus CLDN18.2-negative cell lines ([3]; ZA/IL-2 cultured effector cells, E:T ratio 40:1): Strong ADCC activity against CLDN18.2-positive, but not CLDN18.2-negative human tumor cell lines | localisation of labeled antibody, live imaging (NUGC-4 xenografts; 24 hours after i.v. injection, 80 μg Dyelight 680-labeled antibody): accumulates strongly and exclusively in the tumor xenografts | retention of labeled antibody signal in tumor (NUGC-4 xenografts; 120 hours after injection): detectable in comparable intensity even after 120 hours | mice surviving the entire observation period of 210 days [4]: 4 of 10 | median survival time ([5]; 200 μg twice per week for 6 weeks, start at mean tumor volume 88 mm^3, controls 25 days): 47 days | mice surviving the entire observation period ([5]; 9 to 10 mice per group): Three | antitumoral effects [6]: No antitumoral effects | survival [7]: significantly (p<0.05) longer survival | tumor sizes at day 14 of treatment [7]: significant (p<0.05) smaller tumor sizes | tumor growth [8]: inhibited significantly the tumor growth | outgrowth of CLDN18.2-positive tumors [9]: significantly inhibited and nearly abrogated | tumor growth inhibition [10]: no significant tumor growth inhibition | affinity and specificity for CLDN18.2 ECD1 [11]: high affinity and specificity | mice showing regression of their tumor [12]: up to 40% | tolerability of repeated i.v. doses [13]: well tolerated | tolerability of repeated i.v. doses [14]: well tolerated | gastric toxicity ([15]; any toxicity study): no gastric toxicity | adverse effects on male or female reproductive organs ([15]; in vivo): No adverse effects | immune activation and cytokine release ([15]; in vivo): does not induce immune activation and cytokine release | systemic or local toxicity ([15]; repeated i.v. doses): No signs of systemic or local toxicity | tolerability in patients ([16]; single i.v. administration, 33-1000 mg/m^2, observed for 28 days): very well tolerated | tumor markers in one patient ([16]; within 4 weeks after treatment): decreased significantly | tumor growth compared to controls ([17]; 200 μg twice weekly i.v./i.p. starting 6 days after inoculation, p<0.05): significant inhibited | tumor volumes at day 21 after tumor inoculation compared to control mice ([17]; p<0.05): significant smaller | median survival time ([17]; treatment initiated at about 109 mm^3, versus 25 days, non-significant): 31 days | tumor growth rate ([17]; treatment initiated at mean tumor size of about 109 mm^3): significantly reduce tumor growth rate | tumor growth ([18]; 800 μg i.v. weekly from day 5, versus saline): inhibited highly significant (p<0.001) tumor growth | survival time ([18]; 800 μg i.v. weekly, sacrifice at 1400 mm^3): significantly (p<0.05) longer survival time | tumor growth ([19]; EOF i.p. day 4, 11, 18, 25, IMAB362 800 μg i.v. weekly): highly significant suppressed tumor growth | median survival ([19]; saline control 59 days, sacrifice at 1400 mm^3): 76 days
